This is an account of results in ChEMBL document CHEMBL1201862, “PubChem BioAssay data set” (2004).

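Cells were grown in 96-well plates and exposed to each compound for 48 hours at five concentrations; endpoints were interpolated linearly between bracketing concentrations, or set to the highest concentration if not reached. At the GI50, growth is halved.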 The source made the active and inactive calls. Rule as the data show it: active = GI50 up to about 1.1 µM and inactive = higher. A value given as a limit tells only on which side of the number the result lay.

Among the test systems are SN12C; UACC-257; NCI-H226; SNB-19; TK-10; MOLT-4; SNB-75; HCC 2998; OVCAR-4; OVCAR-5; SK-OV-3; NCI-H23; U-251; CCRF-CEM; Hs-578T; HOP-92; NCI-H522; RXF 393.
Test in all cases: inhibition of tumour cell growth, NCI panel, 48 h

In the case of `COc1ccc(/C=C/C(=O)c2ccc(Br)cc2)cc1`, the GI50 is > 100 µM (inactive) with SN12C; > 10 µM (inactive) with UACC-257; > 100 µM (inactive) with NCI-H226; > 100 µM (inactive) in the test with SNB-19; > 100 µM (inactive) in the test with TK-10; 59.3 µM (inactive) in the test with MOLT-4. The GI50 in the test on SNB-75 is 93.5 µM (inactive); in the test with HCC 2998 it was > 100 µM (inactive); with OVCAR-4, > 100 µM (inactive); in the test on OVCAR-5 it was 18.4 µM (inactive); with SK-OV-3, > 100 µM (inactive); in the test with NCI-H23, 30.6 µM (inactive). In addition, the GI50 with U-251 was > 100 µM (inactive); in the test with CCRF-CEM, > 100 µM (inactive); with Hs-578T, 64.7 µM (inactive).

On to `COc1cc(/C=C2/C[C@H]3[C@@H]4CC=C5C[C@@H](O)CC[C@]5(C)[C@H]4CC[C@]3(C)NC2=O)cc(OC)c1OC`, for which the GI50 was 7.36 µM (inactive) in the test on SN12C; 27.5 µM (inactive) in the test with UACC-257; 22 µM (inactive) in the test with NCI-H226; 20.1 µM (inactive) in the test with SNB-19; 23.6 µM (inactive) in the test with TK-10; 3.69 µM (inactive) with HOP-92. Moreover, the GI50 with MOLT-4 was 21.6 µM (inactive); in the test with HCC 2998, 10.9 µM (inactive); with OVCAR-4, 15.1 µM (inactive); in the test on NCI-H522 it was 5.33 µM (inactive); with OVCAR-5, 29.6 µM (inactive); with SK-OV-3 it was 31.6 µM (inactive). The GI50 in the test on NCI-H23 was 22.1 µM (inactive); in the test on U-251 it was 22.5 µM (inactive); in the test with RXF 393, 16 µM (inactive); with CCRF-CEM it was 47.8 µM (inactive).

For the molecule `O=C1/C(=C/c2ccc3c(c2)CCC3)Cc2cc3c(cc21)CCC3`, the GI50 in the test with SN12C was > 100 µM (inactive); with UACC-257, > 100 µM (inactive); with NCI-H226, > 100 µM (inactive); with SNB-19, 61.9 µM (inactive); with TK-10, > 100 µM (inactive); with HOP-92 it was < 0.01 µM (active). Moreover, the GI50 was > 100 µM (inactive) with MOLT-4; 26.2 µM (inactive) in the test with SNB-75; > 100 µM (inactive) with HCC 2998; > 100 µM (inactive) in the test with OVCAR-4; > 100 µM (inactive) with NCI-H522; > 100 µM (inactive) with OVCAR-5. Further, the GI50 in the test on SK-OV-3 is > 100 µM (inactive); in the test on NCI-H23, > 100 µM (inactive); in the test with U-251 it was > 100 µM (inactive); in the test on RXF 393, 49.3 µM (inactive); with CCRF-CEM it was > 100 µM (inactive).

With `CCOC(=O)c1csc(NC(=O)CN2CCN(C)CC2)n1`, the GI50 with UACC-257, in the test on NCI-H226, in the test with SNB-19, with TK-10, in the test with HOP-92 and in the test with MOLT-4 was > 100 µM (inactive) each time. Also, the GI50 in the test on SNB-75, in the test on HCC 2998, in the test on OVCAR-4, with OVCAR-5, in the test with SK-OV-3 and in the test with NCI-H23 was > 100 µM (inactive) throughout. In addition, the GI50 with U-251, in the test with RXF 393 and in the test with CCRF-CEM was > 100 µM (inactive) throughout.

Take `CCCCOCn1c(=O)[nH]c(=O)c2cc(Br)ccc21`: the GI50 in the test with SN12C is 48.1 µM (inactive); in the test with UACC-257, 43.9 µM (inactive); in the test with NCI-H226 it was 12.6 µM (inactive); in the test on SNB-19 it was 33.2 µM (inactive); with TK-10 it was 53.5 µM (inactive); in the test with HOP-92, 51.1 µM (inactive). Also, the GI50 in the test with MOLT-4 was 44.1 µM (inactive); in the test with SNB-75, 39.7 µM (inactive); with HCC 2998, > 100 µM (inactive); in the test with OVCAR-4 it was 49.3 µM (inactive); in the test on OVCAR-5, > 100 µM (inactive); in the test with SK-OV-3, > 100 µM (inactive). Besides, the GI50 in the test on U-251 is 95.1 µM (inactive); in the test on RXF 393, 42.3 µM (inactive); with CCRF-CEM it was 59.4 µM (inactive).

On to `CC(NC(=O)OC(C)(C)C)C(=O)C(N)=O` (centres undefined), for which the GI50 in the test with SN12C, with NCI-H226, with SNB-19, in the test on TK-10, in the test on HOP-92 and in the test on MOLT-4 was > 100 µM (inactive) each time. Moreover, the GI50 in the test on SNB-75, with HCC 2998, in the test with OVCAR-5, in the test with SK-OV-3, in the test on NCI-H23 and in the test on U-251 was > 100 µM (inactive) each time. Also, the GI50 with CCRF-CEM and in the test on Hs-578T was > 100 µM (inactive) in each case.

For the molecule `N#Cc1c(-c2ccc(Cl)cc2)cc(-c2ccc(Nc3ccnc4cc(Cl)ccc34)cc2)nc1N`, the GI50 in the test on NCI-H226 is > 100 µM (inactive); in the test on SNB-19 it was 28.8 µM (inactive); with TK-10, > 100 µM (inactive); in the test on HOP-92, > 100 µM (inactive); in the test on SNB-75, > 100 µM (inactive); in the test with HCC 2998 it was > 100 µM (inactive). Further, the GI50 was 38.2 µM (inactive) in the test on OVCAR-4; 41.7 µM (inactive) in the test with NCI-H522; > 100 µM (inactive) in the test with OVCAR-5; > 100 µM (inactive) with SK-OV-3; > 100 µM (inactive) in the test on NCI-H23; 97.1 µM (inactive) with U-251. Moreover, in the test on RXF 393, the GI50 was > 100 µM (inactive).

Turning to `CCCCOc1ccc(S(=O)(=O)/N=C(\NN)Nc2ccc(Cl)cc2)cc1`, the GI50 in the test with SN12C is 19.2 µM (inactive); in the test with UACC-257, 23.1 µM (inactive); in the test with NCI-H226, 29.6 µM (inactive); in the test on SNB-19, 53.5 µM (inactive); with TK-10, 43.5 µM (inactive); with HOP-92, 25.2 µM (inactive). Besides, the GI50 in the test with MOLT-4 was 23.3 µM (inactive); in the test with SNB-75, 12.2 µM (inactive); in the test on OVCAR-4 it was 19.1 µM (inactive); with OVCAR-5 it was 21 µM (inactive); in the test with SK-OV-3, 27 µM (inactive); with NCI-H23 it was 36.1 µM (inactive). The figures for the GI50 with U-251, in the test with RXF 393 and in the test on CCRF-CEM were 16.4 µM (inactive), 16.7 µM (inactive) and 20 µM (inactive), respectively.

On to `CC1=CC(=O)C(=CN2C(=O)/C(=C\c3cccnc3)NC2=S)C(=O)O1`, for which the GI50 in the test on SN12C, with UACC-257, in the test on NCI-H226, in the test on SNB-19, in the test with TK-10 and in the test on HOP-92 was > 100 µM (inactive) each time. The GI50 in the test on MOLT-4, in the test with SNB-75, in the test with HCC 2998, in the test on OVCAR-4, in the test with OVCAR-5 and in the test on SK-OV-3 was > 100 µM (inactive) in each case. The GI50 with NCI-H23 and in the test on U-251 was > 100 µM (inactive) in each case.
